Columns and labels:
Format in all cases: in vivo
[1] = tested on: cocklebur (Xanthium strumarium); test: Test B pre-/postemergence; design: key: 0 is no effect; 10 is complete control; details: for Cocklebur plant response rating: Preemergence
Source text: (§1) Seeds of bedstraw (Galium aparine), blackgrass (Alopecurus myosuroides), broadleaf signalgrass (Brachiaria decumbens), cocklebur (Xanthium strumarium), corn (Zea mays), crabgrass (Digitaria sanguinalis), giant foxtail (Setaria faberii), lambsquarters (Chenopodium album), momingglory (Ipomoea hederacea), pigweed (Amaranthus retroflexus), rape (Brassica napus), soybean (Glycine max), sugar beet (Beta vulgaris), velvetleaf (Abutilon theophrasti), wheat (Triticum aestivum), wild oat (Avena fatua) and purple nutsedge (Cyperus rotundus) tubers were planted and treated preemergence with test chemicals formulated in a non-phytotoxic solvent mixture which included a surfactant.
(§2) At the same time, these crop and weed species were also treated with postemergence applications of test chemicals formulated in the same manner. Plants ranged in height from 2 to 18 cm (1- to 4-leaf stage) for postemergence treatments. Plant species in the flood test consisted of rice (Oryza sativa), smallflower flatsedge (Cyperus difformis), duck salad (Heteranthera limosa) and bamyardgrass (Echinochloa crus-galli) grown to the 2-leaf stage for testing. Treated plants and controls were maintained in a greenhouse for twelve to sixteen days, after which all species were compared to controls and visually evaluated. Plant response ratings, summarized in Table B, are based on a scale of 0 to 10 where 0 is no effect and 10 is complete control. A dash (−) response means no test result.

[2] = tested on: wheat (Triticum aestivum); test: Test B pre-/postemergence; design: key: 0 is no effect; 10 is complete control
Source text: as §1, §2

[3] = tested on: sugar beet (Beta vulgaris); test: Test B pre-/postemergence; design: key: 0 is no effect; 10 is complete control
Source text: as §1, §2

[4] = tested on: momingglory (Ipomoea hederacea); test: Test B pre-/postemergence; design: key: 0 is no effect; 10 is complete control
Source text: as §1, §2

[5] = tested on: broadleaf signalgrass (Brachiaria decumbens); test: Test B pre-/postemergence; design: key: 0 is no effect; 10 is complete control; details: for B. signalgrass plant response rating: Preemergence
Source text: as §1, §2

[6] = tested on: velvetleaf (Abutilon theophrasti); test: Test B pre-/postemergence; design: key: 0 is no effect; 10 is complete control
Source text: as §1, §2

[7] = tested on: blackgrass (Alopecurus myosuroides); test: Test B pre-/postemergence; design: key: 0 is no effect; 10 is complete control; details: for Blackgrass plant response rating: Preemergence
Source text: as §1, §2

[8] = tested on: pigweed (Amaranthus retroflexus); test: Test B pre-/postemergence; design: key: 0 is no effect; 10 is complete control
Source text: as §1, §2

rape (Brassica napus) = test: Test B pre-/postemergence; design: key: 0 is no effect; 10 is complete control
Source text: as §1, §2

[9] = tested on: crabgrass (Digitaria sanguinalis); test: Test B pre-/postemergence; design: key: 0 is no effect; 10 is complete control; details: for Crabgrass plant response rating: Preemergence
Source text: as §1, §2

[10] = tested on: giant foxtail (Setaria faberii); test: Test B pre-/postemergence; design: key: 0 is no effect; 10 is complete control
Source text: as §1, §2

[11] = tested on: bedstraw (Galium aparine); test: Test B pre-/postemergence; design: key: 0 is no effect; 10 is complete control; details: for Bedstraw plant response rating: Preemergence
Source text: as §1, §2

soybean (Glycine max) = test: Test B pre-/postemergence; design: key: 0 is no effect; 10 is complete control
Source text: as §1, §2

corn (Zea mays) = test: Test B pre-/postemergence; design: key: 0 is no effect; 10 is complete control; details: for Corn plant response rating: Preemergence
Source text: as §1, §2

wild oat (Avena fatua) = test: Test B pre-/postemergence; design: key: 0 is no effect; 10 is complete control
Source text: as §1, §2

[12] = tested on: bamyardgrass (Echinochloa crus-galli); test: Test B flood test
Protocol: as §2

[13] = tested on: duck salad (Heteranthera limosa); test: Test B flood test
Protocol: as §2

[14] = tested on: smallflower flatsedge (Cyperus difformis); test: Test B flood test
Protocol: as §2

rice (Oryza sativa) = test: Test B flood test
Protocol: as §2

[15] = Rate 250 g/ha, Postemergence (so in the source)
[16] = Rate 62 g/ha, Postemergence (flood test)
[17] = Rate 125 g/ha, Postemergence, flood test
[18] = Rate 250 g/ha, Postemergence (flood test species)
[19] = Rate 125 g/ha, Postemergence section (flood test species)

CCc1cnc(-n2ccc(C(F)(F)F)n2)nc1Cc1cccc(OC(F)(F)F)c1 [Compound 47]
10: Plant response rating, Velvetleaf ([6]; Rate 125 g/ha, Preemergence) | Plant response rating, Velvetleaf [6, 15] | Plant response rating, Blackgrass [7, 15] | Plant response rating, Redroot pigweed [8, 15] | Plant response rating, Rape (rape (Brassica napus); Rate 62 g/ha, Postemergence) | Rape plant response rating (rape (Brassica napus); Rate 125 g/ha, Postemergence) | Plant response rating, Rape (rape (Brassica napus); Rate 250 g/ha, Postemergence) | Plant response rating, Rape (rape (Brassica napus); [15]) | Crabgrass plant response rating ([9]; Rate 125 g/ha) | Plant response rating, Crabgrass ([9]; Rate 250 g/ha, Postemergence) | Plant response rating, Crabgrass [9, 15] | Giant foxtail plant response rating ([10]; Rate 125 g/ha, Preemergence) | Plant response rating, Giant foxtail [10, 15] | Plant response rating, Wild oats (wild oat (Avena fatua); [15])
3: Plant response rating, Wheat ([2]; Rate 125 g/ha, Preemergence) | Blackgrass plant response rating ([7]; Rate 62 g/ha) | Plant response rating, Corn (corn (Zea mays); Rate 62 g/ha, Postemergence) | Plant response rating, Corn (corn (Zea mays); Rate 125 g/ha, Postemergence) | Plant response rating, Corn (corn (Zea mays); [15]) | Plant response rating, Barnyardgrass [12, 17] | Plant response rating, Ducksalad [13, 16] | Plant response rating, Ducksalad [13, 17] | Plant response rating, Rice (rice (Oryza sativa); [16])
8: Plant response rating, Cocklebur ([1]; Rate 125 g/ha, Postemergence) | Plant response rating, Cocklebur ([1]; Rate 250 g/ha, Postemergence) | Plant response rating, Morningglory ([4]; Rate 250 g/ha, Postemergence) | Plant response rating, B. signalgrass ([5]; Rate 250 g/ha, Postemergence) | Velvetleaf plant response rating ([6]; Rate 62 g/ha, Preemergence) | Plant response rating, Velvetleaf ([6]; Rate 250 g/ha, Postemergence) | Blackgrass plant response rating ([7]; Rate 125 g/ha) | Redroot pigweed plant response rating ([8]; Rate 62 g/ha, Preemergence) | Crabgrass plant response rating ([9]; Rate 62 g/ha) | Bedstraw plant response rating ([11]; Rate 125 g/ha) | Plant response rating, Bedstraw [11, 15] | Plant response rating, Soybean (soybean (Glycine max); Rate 62 g/ha, Postemergence) | Soybean plant response rating (soybean (Glycine max); Rate 125 g/ha, Postemergence) | Wild oats plant response rating (wild oat (Avena fatua); Rate 125 g/ha, Postemergence)
9: Plant response rating, Sugarbeets ([3]; Rate 62 g/ha, Postemergence) | Sugarbeets plant response rating ([3]; Rate 125 g/ha, Postemergence) | Plant response rating, Sugarbeets ([3]; Rate 250 g/ha, Postemergence) | Plant response rating, Sugarbeets [3, 15] | Plant response rating, B. signalgrass ([5]; Rate 250 g/ha, Postemergence as printed in head r139 (second section for compounds 26-50)) | Plant response rating, Redroot pigweed ([8]; Rate 62 g/ha, Postemergence) | Redroot pigweed plant response rating ([8]; Rate 125 g/ha, Postemergence) | Redroot pigweed plant response rating ([8]; Rate 125 g/ha, Preemergence) | Plant response rating, Redroot pigweed ([8]; Rate 250 g/ha, Postemergence) | Rape plant response rating (rape (Brassica napus); Rate 125 g/ha, Preemergence) | Plant response rating, Crabgrass ([9]; Rate 125 g/ha, Postemergence) | Giant foxtail plant response rating ([10]; Rate 62 g/ha, Preemergence) | Plant response rating, Bedstraw ([11]; Rate 62 g/ha, Postemergence) | Wild oats plant response rating (wild oat (Avena fatua); Rate 62 g/ha, Preemergence) | Plant response rating, Wild oats (wild oat (Avena fatua); Rate 125 g/ha, Preemergence) | Plant response rating, Wild oats (wild oat (Avena fatua); Rate 250 g/ha, Postemergence) | Plant response rating, S. Flatsedge [14, 18]
4: Plant response rating, B. signalgrass ([5]; Rate 62 g/ha, Postemergence) | Plant response rating, Giant foxtail ([10]; Rate 62 g/ha, Postemergence) | Giant foxtail plant response rating ([10]; Rate 125 g/ha, Postemergence) | Plant response rating, Corn (corn (Zea mays); Rate 250 g/ha, Postemergence)
1: Cocklebur plant response rating ([1]; Rate 62 g/ha) | Morningglory plant response rating ([4]; Rate 62 g/ha, Preemergence) | Corn plant response rating (corn (Zea mays); Rate 62 g/ha)
5: Wheat plant response rating ([2]; Rate 62 g/ha, Postemergence) | Wheat plant response rating ([2]; Rate 125 g/ha, Postemergence) | Plant response rating, Wheat [2, 15] | B. signalgrass plant response rating ([5]; Rate 62 g/ha) | Plant response rating, B. signalgrass ([5]; Rate 125 g/ha, Postemergence) | Plant response rating, Blackgrass ([7]; Rate 62 g/ha, Postemergence) | Plant response rating, Blackgrass ([7]; Rate 125 g/ha, Postemergence) | Rice plant response rating (rice (Oryza sativa); [19])
2: Cocklebur plant response rating ([1]; Rate 125 g/ha) | Plant response rating, Cocklebur [1, 15] | Wheat plant response rating ([2]; Rate 62 g/ha, Preemergence) | Plant response rating, Soybean (soybean (Glycine max); [15]) | Corn plant response rating (corn (Zea mays); Rate 125 g/ha) | Plant response rating, Barnyardgrass [12, 16]
0: Soybean plant response rating (soybean (Glycine max); Rate 62 g/ha, Preemergence) | Plant response rating, Soybean (soybean (Glycine max); Rate 125 g/ha, Preemergence)
6: Plant response rating, Wheat ([2]; Rate 250 g/ha, Postemergence) | Plant response rating, Morningglory ([4]; Rate 62 g/ha, Postemergence) | Morningglory plant response rating ([4]; Rate 125 g/ha, Postemergence) | Morningglory plant response rating ([4]; Rate 125 g/ha, Preemergence) | Plant response rating, Morningglory [4, 15] | B. signalgrass plant response rating ([5]; Rate 125 g/ha) | Plant response rating, Blackgrass ([7]; Rate 250 g/ha, Postemergence) | Wild oats plant response rating (wild oat (Avena fatua); Rate 62 g/ha, Postemergence) | Plant response rating, Barnyardgrass [12, 18] | Plant response rating, Rice (rice (Oryza sativa); [18])
7: Plant response rating, Cocklebur ([1]; Rate 62 g/ha, Postemergence) | Sugarbeets plant response rating ([3]; Rate 62 g/ha, Preemergence) | Plant response rating, Sugarbeets ([3]; Rate 125 g/ha, Preemergence) | Plant response rating, Velvetleaf ([6]; Rate 62 g/ha, Postemergence) | Velvetleaf plant response rating ([6]; Rate 125 g/ha, Postemergence) | Rape plant response rating (rape (Brassica napus); Rate 62 g/ha, Preemergence) | Plant response rating, Crabgrass ([9]; Rate 62 g/ha, Postemergence) | Plant response rating, Giant foxtail ([10]; Rate 250 g/ha, Postemergence) | Bedstraw plant response rating ([11]; Rate 62 g/ha) | Plant response rating, Soybean (soybean (Glycine max); Rate 250 g/ha, Postemergence) | Plant response rating, Ducksalad [13, 18] | Plant response rating, S. Flatsedge [14, 16] | S. Flatsedge plant response rating [14, 19]

From US6525001B1, “Substituted pyrimidine and pyridine herbicides” (Mid-American Commercialization Corporation, priority 1997, dated 2003)
